Reference: ChEMBL document CHEMBL1140660, “Synthesis and structure-activity relationship of a novel, non-hydroxamate series of TNF-alpha converting enzyme inhibitors” (Bioorg Med Chem Lett, 2007)

Legend:
[1] = molecular target: Disintegrin and metalloproteinase domain-containing protein 17 (Sus scrofa, UniProt O77636); test: Inhibition of porcine TACE
Stromelysin-1 = Stromelysin-1 (Homo sapiens, UniProt P08254); test: Inhibition of MMP3
Collagenase 3 = Collagenase 3 (Homo sapiens, UniProt P45452); test: Inhibition of MMP13
[2] = molecular target: Macrophage metalloelastase (Homo sapiens, UniProt P39900); test: Inhibition of MMP12
Sequence of Macrophage metalloelastase (P39900 whole entry): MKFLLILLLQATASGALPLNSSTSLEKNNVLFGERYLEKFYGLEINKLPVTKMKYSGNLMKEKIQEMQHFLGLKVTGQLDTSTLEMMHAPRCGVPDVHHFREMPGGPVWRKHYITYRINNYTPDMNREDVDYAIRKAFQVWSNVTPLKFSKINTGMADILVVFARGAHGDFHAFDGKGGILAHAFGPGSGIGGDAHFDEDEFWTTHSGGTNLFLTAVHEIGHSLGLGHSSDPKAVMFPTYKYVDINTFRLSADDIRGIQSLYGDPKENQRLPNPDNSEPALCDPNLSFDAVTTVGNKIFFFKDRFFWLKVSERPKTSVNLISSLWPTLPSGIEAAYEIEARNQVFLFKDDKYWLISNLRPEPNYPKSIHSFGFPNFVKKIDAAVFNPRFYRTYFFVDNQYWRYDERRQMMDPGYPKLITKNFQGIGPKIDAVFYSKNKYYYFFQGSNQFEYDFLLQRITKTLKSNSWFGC

[3] = molecular target: 72 kDa type IV collagenase (Homo sapiens, UniProt P08253); test: Inhibition of MMP2
Sequence of 72 kDa type IV collagenase (P08253 whole entry): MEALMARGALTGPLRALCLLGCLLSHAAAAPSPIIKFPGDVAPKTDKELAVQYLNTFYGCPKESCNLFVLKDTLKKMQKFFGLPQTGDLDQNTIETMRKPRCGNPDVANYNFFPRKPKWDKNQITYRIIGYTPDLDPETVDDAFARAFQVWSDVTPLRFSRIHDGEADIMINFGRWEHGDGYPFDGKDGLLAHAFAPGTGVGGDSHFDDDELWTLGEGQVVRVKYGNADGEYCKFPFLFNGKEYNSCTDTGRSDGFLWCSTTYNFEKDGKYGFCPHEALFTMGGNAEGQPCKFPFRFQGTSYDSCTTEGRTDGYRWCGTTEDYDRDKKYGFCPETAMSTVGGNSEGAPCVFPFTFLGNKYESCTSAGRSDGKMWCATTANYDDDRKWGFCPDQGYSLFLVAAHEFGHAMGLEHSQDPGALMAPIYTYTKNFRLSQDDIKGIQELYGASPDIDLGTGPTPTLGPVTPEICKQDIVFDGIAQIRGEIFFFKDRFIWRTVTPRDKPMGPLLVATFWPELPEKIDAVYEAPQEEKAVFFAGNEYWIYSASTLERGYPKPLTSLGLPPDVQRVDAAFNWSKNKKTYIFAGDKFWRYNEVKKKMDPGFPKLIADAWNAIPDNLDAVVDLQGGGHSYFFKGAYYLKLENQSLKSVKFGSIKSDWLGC

Matrilysin = molecular target: T1, Matrilysin (Homo sapiens, UniProt P09237); test: Inhibition of MMP7
T1 sequence (P09237 whole entry): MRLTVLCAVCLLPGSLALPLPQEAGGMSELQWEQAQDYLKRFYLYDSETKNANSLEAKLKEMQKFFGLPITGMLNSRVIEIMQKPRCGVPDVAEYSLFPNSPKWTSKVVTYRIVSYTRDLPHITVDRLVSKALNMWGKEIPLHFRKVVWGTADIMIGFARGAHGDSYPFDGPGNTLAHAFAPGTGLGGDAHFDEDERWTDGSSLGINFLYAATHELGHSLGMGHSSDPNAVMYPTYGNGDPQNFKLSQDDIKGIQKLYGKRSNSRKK

Sequence of Disintegrin and metalloproteinase domain-containing protein 17 (O77636 whole entry, the tested form may be a part): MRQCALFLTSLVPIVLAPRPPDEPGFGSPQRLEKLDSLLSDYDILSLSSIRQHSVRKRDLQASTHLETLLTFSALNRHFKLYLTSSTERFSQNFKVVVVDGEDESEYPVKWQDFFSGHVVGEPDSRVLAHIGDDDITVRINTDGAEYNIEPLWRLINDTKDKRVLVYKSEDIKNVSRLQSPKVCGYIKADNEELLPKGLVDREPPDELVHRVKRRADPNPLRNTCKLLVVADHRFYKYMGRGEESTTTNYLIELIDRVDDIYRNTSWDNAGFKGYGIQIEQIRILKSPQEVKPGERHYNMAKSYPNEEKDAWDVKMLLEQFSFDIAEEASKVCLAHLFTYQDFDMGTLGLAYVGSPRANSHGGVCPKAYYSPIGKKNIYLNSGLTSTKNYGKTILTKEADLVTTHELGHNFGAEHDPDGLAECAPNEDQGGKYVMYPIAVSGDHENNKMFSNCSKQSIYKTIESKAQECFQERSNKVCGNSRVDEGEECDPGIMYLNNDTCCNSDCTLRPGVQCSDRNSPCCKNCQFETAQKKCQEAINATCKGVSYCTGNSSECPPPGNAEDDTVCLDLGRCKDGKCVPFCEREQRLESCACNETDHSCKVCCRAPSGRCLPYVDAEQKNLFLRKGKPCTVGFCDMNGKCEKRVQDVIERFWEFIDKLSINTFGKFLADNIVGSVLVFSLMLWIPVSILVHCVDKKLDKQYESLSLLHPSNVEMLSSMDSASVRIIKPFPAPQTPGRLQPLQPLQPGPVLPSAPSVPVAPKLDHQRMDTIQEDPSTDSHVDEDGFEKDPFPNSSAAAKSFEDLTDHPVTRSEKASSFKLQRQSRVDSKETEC
Sequence of Stromelysin-1 (P08254 whole entry): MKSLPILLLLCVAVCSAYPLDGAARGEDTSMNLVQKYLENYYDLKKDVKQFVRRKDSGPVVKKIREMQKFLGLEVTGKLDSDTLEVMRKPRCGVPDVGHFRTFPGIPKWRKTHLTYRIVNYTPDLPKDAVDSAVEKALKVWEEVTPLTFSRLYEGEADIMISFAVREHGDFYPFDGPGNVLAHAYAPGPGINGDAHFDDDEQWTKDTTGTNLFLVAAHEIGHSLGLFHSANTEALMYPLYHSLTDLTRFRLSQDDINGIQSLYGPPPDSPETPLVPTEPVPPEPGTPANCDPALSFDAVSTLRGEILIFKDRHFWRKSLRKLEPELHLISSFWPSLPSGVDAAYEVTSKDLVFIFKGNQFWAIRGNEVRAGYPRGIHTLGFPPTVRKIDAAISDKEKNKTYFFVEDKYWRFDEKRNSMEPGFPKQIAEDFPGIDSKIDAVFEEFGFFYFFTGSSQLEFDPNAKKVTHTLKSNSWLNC

SMILES | IC50 [1] [µM] | Ki (Stromelysin-1) [µM] | Ki (Collagenase 3) [µM] | Ki [2] [µM] | Ki [3] [µM] | Ki (Matrilysin) [µM]
Cc1cc(COc2ccc(C(=O)NC3(Cc4n[nH]c(=S)[nH]4)CCOCC3)cc2)c2ccccc2n1 | 0.024 | 2.1 | 0.753 | 0.223 | 1.6 | 0.635
Cc1cc(COc2ccc([C@]3(N)CCN([C@H](CC(C)C)c4n[nH]c(=S)[nH]4)C3=O)cc2)c2ccccc2n1 | > 1 | > 4.5 | > 5.03 | > 6.02 | > 3.33 | > 6.37
Cc1cc(COc2ccc(C(=O)NCCc3n[nH]c(=S)[nH]3)cc2)c2ccccc2n1 | 0.21 | > 4.5 | > 5.03 | > 6.02 | > 3.33 | > 6.37
O=C(NCCCc1n[nH]c(=S)[nH]1)c1ccc(OCc2ccnc3ccccc23)cc1 | 0.294 | > 4.5 | > 5.03 | > 6.02 | > 3.33 | > 6.37
Cc1cc(COc2ccc(C(=O)NC(C)(C)Cc3n[nH]c(=S)[nH]3)cc2)c2ccccc2n1 | 0.055 | > 4.5 | > 5.03 | > 6.02 | > 3.33 | > 6.37
Cc1cc(COc2ccc(C(=O)NCc3n[nH]c(=S)[nH]3)cc2)c2ccccc2n1 | > 1 | > 4.5 | > 5.03 | > 6.02 | > 3.33 | > 6.37
Cc1cc(COc2ccc(C(=O)NC3(Cc4n[nH]c(=S)[nH]4)CCN(C(=O)OC(C)(C)C)CC3)cc2)c2ccccc2n1 | 0.036 | > 4.5 | > 5.03 | > 6.02 | > 3.33 | > 6.37
Cc1cc(COc2ccc(C(=O)N[C@@H]3CN(C(=O)OC(C)(C)C)C[C@@H]3c3n[nH]c(=S)[nH]3)cc2)c2ccccc2n1 (relative stereo) | 0.014 | > 4.5 | > 5.03 | 3.56 | > 3.33 | > 6.37
CC(=O)N1C[C@H](c2n[nH]c(=S)[nH]2)[C@H](NC(=O)c2ccc(OCc3cc(C)nc4ccccc34)cc2)C1 (relative stereo) | 0.0015 | > 4.5 | > 5.03 | > 6.02 | > 3.33 | > 6.37
Cc1cc(COc2ccc(C(=O)N[C@@H]3CCOC[C@@H]3c3n[nH]c(=S)[nH]3)cc2)c2ccccc2n1 (relative stereo) | 0.0081 | > 4.5 | > 5.03 | > 6.02 | > 3.33 | > 6.37
Cc1cc(COc2ccc(C(=O)N[C@@H]3CCNC[C@@H]3c3n[nH]c(=S)[nH]3)cc2)c2ccccc2n1 (relative stereo) | 0.043 | > 4.5 | > 5.03 | > 6.02 | > 3.33 | > 6.37
Cc1cc(COc2ccc(C(=O)N[C@@H]3CN(C(=O)OC(C)(C)C)CC[C@@H]3c3n[nH]c(=S)[nH]3)cc2)c2ccccc2n1 (relative stereo) | 0.075 | > 4.5 | > 5.03 | > 6.02 | > 3.33 | > 6.37
CC(=O)N1CC[C@H](c2n[nH]c(=S)[nH]2)[C@H](NC(=O)c2ccc(OCc3cc(C)nc4ccccc34)cc2)C1 (relative stereo) | 0.0025 | > 4.5 | 3.14 | > 6.02 | > 3.33 | > 6.37
CCCN1CC[C@H](c2n[nH]c(=S)[nH]2)[C@H](NC(=O)c2ccc(OCc3cc(C)nc4ccccc34)cc2)C1 (relative stereo) | 0.015 | > 4.5 | > 5.03 | > 6.02 | > 3.33 | > 6.37
Cc1cc(COc2ccc(C(=O)N[C@@H]3CN(S(C)(=O)=O)CC[C@@H]3c3n[nH]c(=S)[nH]3)cc2)c2ccccc2n1 (relative stereo) | 0.028 | > 4.5 | > 5.03 | > 6.02 | > 3.33 | > 6.37
Cc1cc(COc2ccc(C(=O)N[C@@H]3CN(C(C)C)CC[C@@H]3c3n[nH]c(=S)[nH]3)cc2)c2ccccc2n1 (relative stereo) | 0.031 | > 4.5 | > 5.03 | > 6.02 | > 3.33 | > 6.37
C#CCN1CC[C@H](c2n[nH]c(=S)[nH]2)[C@H](NC(=O)c2ccc(OCc3cc(C)nc4ccccc34)cc2)C1 (relative stereo) | 0.073 | > 4.5 | > 5.03 | > 6.02 | > 3.33 | > 6.37
Cc1cc(COc2ccc(C(=O)N[C@@H]3CNCC[C@@H]3c3n[nH]c(=S)[nH]3)cc2)c2ccccc2n1 (relative stereo) | 0.0094 | > 4.5 | > 5.03 | > 6.02 | > 3.33 | > 6.37
Cc1cc(COc2ccc(C(=O)N[C@@H]3CN(C)CC[C@@H]3c3n[nH]c(=S)[nH]3)cc2)c2ccccc2n1 (relative stereo) | 0.016 | > 4.5 | > 5.03 | 0.958 | > 3.33 | 5.37
Cc1cc(COc2ccc(C(=O)N[C@@H]3CCC[C@@H]3c3n[nH]c(=S)[nH]3)cc2)c2ccccc2n1 (relative stereo) | 0.041 | > 4.5 | > 5.03 | > 6.02 | > 3.33 | > 6.37
Cc1cc(COc2ccc(C(=O)N[C@@H]3CNC[C@@H]3c3n[nH]c(=S)[nH]3)cc2)c2ccccc2n1 (relative stereo) | 0.092 | > 4.5 | > 5.03 | > 6.02 | > 3.33 | > 6.37
CCCN1C[C@H](c2n[nH]c(=S)[nH]2)[C@H](NC(=O)c2ccc(OCc3cc(C)nc4ccccc34)cc2)C1 (relative stereo) | 0.0099 | > 4.5 | 2.46 | > 6.02 | > 3.33 | > 6.37
